{"source": "paper PMC6269819", "about": "“Evaluation of the Biological Activity of Naturally Occurring 5,8-Dihydroxycoumarin” (Molecules, 2013)", "key": {"[1]": {"system": "Drosophila melanogaster wing cells", "assay": "Somatic mutation and recombination test (SMART), wing spot test", "format": "in vivo", "procedure": "The basic procedures for the D. melanogaster somatic mutation and recombination test (SMART) were performed according to Graf and co-workers. Two D. melanogaster strains (kindly provided by Dr. H. Frei, Zurich, Switzerland) were used in the present study: virgin females from the strain ORR/ORR; flr^3/ In (3LR) TM3, ri p^p sep l(3)89Aa bx^34e e Bd^S were mated with mwh/mwh males. The ORR strain has chromosomes 1 and 2 from a DDT-resistant Oregon line, which are characterized by constitutively over-expressed CYP450 genes. The CYP 450 enzymes play the main role in the bioactivation of xenobiotics, as well as natural products including phytochemicals. Thus, the use of this high-bioactivation strain of D. melanogaster facilitates the detection of promutagens of numerous classes of compounds. The markers mwh (multiple wing hairs) and flr^3 (misshapen, flare-like hairs) are recessive wing-hair mutations located on the third chromosome at 0.3 and 38.8 respectively.\nEggs from the crosses were collected over 10 h periods. Progeny were raised on the Instant Drosophila Medium (Sigma Chemical Co., St. Louis, MO, USA) at 25 °C. Two schedules of the larvae treatment were applied. Firstly, the crossed flies were permitted to lay eggs for 10 h in vials containing medium prepared with 5,8-DHC solution. Thus, the exposure duration was about 120 h (i.e., evolutionary period from fly egg till case-worm). According to the second schedule, the 72 ± 5 h-old larvae were exposed to 5,8-DHC by adding test solution to the surface of the medium and were fed on this medium for the rest of their development, during approximately 48 h. 5,8-DHC was dissolved in ethanol and then diluted with distilled water to the desired concentration, with the final ethanol concentration 5% v/v. The solutions were always prepared immediately before use. Solvent controls were included in all treatments. Methyl methanesulfonate was included in the assay as a positive control. Trans-heterozygous (mwh flr^+ / mwh^+ flr^3) flies were collected and stored in a 70% ethanol. The wings of adult flies were mounted on glass slides in Faure’s solution, coded and scored at 400× magnification (Nikon E200) for the presence of single (mwh or flr^3 phenotype) or twin (adjacent mwh and flr^3 clones) spots. The spots were recorded according to standard procedures. No less than 40 wings were analysed per each experimental point. Two repeated experiments were carried out."}, "[2]": {"assay": "DPPH• radical scavenging assay", "settings": "16 min reaction", "procedure": "Radical scavenging activity of extracts against stable DPPH^• (2,2-diphenyl-[…] hydrate, Sigma-Aldrich Chemie, Steinheim, Germany) was determined spectrophotometrically by using slightly modified method of Brand-Williams et al. (1995). 5,8-DHC was dissolved in methanol at 0.0025, 0.005, 0.010 and 0.025% concentrations before reaction. A 2 mL aliquot of DPPH^• solution in methanol (6 × 10^−5 M) was mixed with a 50 μL of 5,8-DHC solution in 1 cm path length quartz cuvette. The decreasing absorbance at 515 nm was recorded on a UV spectrophotometer Spectronic Genesys 8 (Spectronic Instruments, Rochester, NY, USA) during 16 min reaction time at 1 min intervals until the absorbance curve reached the plateau. The same amount of methanol and DPPH^• solution was used as a blank. The experiments were carried out in triplicate."}, "[3]": {"assay": "Rapeseed oil oxidation in Oxipress apparatus", "settings": "for protection factor of rapeseed oil: 120 °C, oxygen 5 bars", "procedure": "The samples were prepared by mixing rapeseed oil with 0.025, 0.05 and 0.1% of DHC. Five g of oil were placed in a reactor tube and thermostated at 120 °C under oxygen atmosphere (5 bars) in Oxipress apparatus (Mikrolab, Aarhus). Pressure changes which occur due to the absorption of oxygen consumed for oil oxidation were recorded. The protection factor (PF) values of rapeseed oil in case of using 5,8-DHC were calculated by the following formula: PF = IPX/IPK(3) where IPX is induction period of sample with additive (h); IPK is induction period of sample without additive (h)."}, "[4]": {"system": "human lymphocytes", "assay": "Chromosome aberrations in human lymphocyte cultures in vitro", "format": "cell-based", "settings": "for CA per 100 cells (±S.E.M.): 24 h treatment, pooled two donors", "procedure": "Blood samples were taken from two healthy female volunteers (donor A) and (donor B). Whole peripheral blood was grown in HEPES-buffered RPMI 1640 medium supplemented with 12% heat-inactivated newborn calf serum, 7.8 μg/mL phytohemagglutinin P, 50 μg/mL gentamycin, 10 μg/mL 5-bromo-2'-deoxyuridine. All reagents used for the cell culture were purchased from Sigma-Aldrich Chemical Co. (St. Louis, MO, USA). Cell cultures were incubated at 37 °C for 72 h. Treatment with test compounds was carried out 48 h after culture initiation and lasted for the period of 24 h. Dose range of 5,8-DHC (10 to 40 µg/mL) was based on pilot experiments (data not shown). As whole blood cultures display many properties common with the liver microsomal cytochrome P450 system, no external metabolising enzymes were added. 5,8-DHC was dissolved in ethanol and then diluted with RPMI 1640 medium to the desired concentration. Ethanol in a final concentration of 7.5µL/mL was used as a solvent control. […] Working solutions were made just before treatment. Two parallel cultures were used for each concentration of the compound tested. Two cultures were left untreated and served as a blank control. Methyl methanesulfonate (MMS) in a final concentration of 0.02 μL/mL was used as a positive control. The cultures were exposed to colchicine at a final concentration of 0.6 μg/mL for the last 3 h of incubation. The cells were harvested, hypotonically swollen in 0.075 M KCl and fixed in methanol: acetic acid (3:1). Air-dried slides were differentially stained by fluorescence plus Giemsa technique as has been described previously. Briefly, the slides were stained for 10 min. with 10 μg/mL of Hoechst 33258 dye (dissolved in 0.07 M Soerensen’s buffer, pH 6.8). Then the slides were rinsed, mounted with citrate buffer (pH 8.5), covered with cover slips and exposed to UV light (400 W mercury lamp at a distance of 15 cm) for 6–7 min. Slides were then rinsed and stained for 3–4 min. with 5% Giemsa. Cytogenetic analysis was performed on coded slides. No less than 100 first-mitotic division metaphases per culture were analysed for CAs, and no less than 50 second-division metaphases for SCEs."}, "[5]": {"settings": "test solution 0.1%, exposure duration 48 h"}, "[6]": {"settings": "test solution 0.1%, exposure duration 120 h"}, "[7]": {"settings": "test solution 0.25%, exposure duration 48 h"}, "[8]": {"settings": "test solution 0.25%, exposure duration 120 h"}, "[9]": {"settings": "test solution 0.5%, exposure duration 48 h"}, "[10]": {"settings": "test solution 0.5%, exposure duration 120 h"}}, "note": "Marks after values point to notes of the source that are not given here."}
{"smiles": "O=c1ccc2c(O)ccc(O)c2o1", "note": "[5,8-DHC, 5,8-Dihydroxycoumarin]", "values": [{"measurement": "large single spots", "setting": "[1]; 0.5% 5,8-DHC, 120 h of treatment", "value": 0.10, "unit": "spots per wing"}, {"measurement": "increase in the number of somatic mutations", "setting": "[1]; 48 h treatment", "value": "no statistically significant increase"}, {"measurement": "genotoxicity in SMART", "setting": "[1]; 120 h treatment", "value": "slight genotoxicity"}, {"measurement": "frequency of twin spots", "setting": "[1]; range over concentrations", "value": "0–0.04 spots per wing"}, {"measurement": "Spots/wing (±S.E.M.)", "setting": "[1]; [5]", "value": "0.27 ± 0.04", "unit": "spots/wing"}, {"measurement": "Wings with spots (% ± S.E.M.)", "setting": "[1]; [5]", "value": "26.8 ± 4.5", "unit": "%"}, {"measurement": "Spots/wing (±S.E.M.)", "setting": "[1]; [6]", "value": "0.25 ± 0.04 ^a spots/wing"}, {"measurement": "Wings with spots (% ± S.E.M.)", "setting": "[1]; [6]", "value": "22.4 ± 4.2", "unit": "%"}, {"measurement": "Spots/wing (±S.E.M.)", "setting": "[1]; [7]", "value": "0.22 ± 0.04", "unit": "spots/wing"}, {"measurement": "Wings with spots (% ± S.E.M.)", "setting": "[1]; [7]", "value": "21.1 ± 4.3", "unit": "%"}, {"measurement": "Spots/wing (±S.E.M.)", "setting": "[1]; [8]", "value": "0.30 ± 0.04 ^a spots/wing"}, {"measurement": "Wings with spots (% ± S.E.M.)", "setting": "[1]; [8]", "value": "27.1 ± 4.5^a %"}, {"measurement": "Spots/wing (±S.E.M.)", "setting": "[1]; [9]", "value": "0.27 ± 0.04", "unit": "spots/wing"}, {"measurement": "Wings with spots (% ± S.E.M.)", "setting": "[1]; [9]", "value": "25.0 ± 4.4", "unit": "%"}, {"measurement": "Spots/wing (±S.E.M.)", "setting": "[1]; [10]", "value": "0.32 ± 0.04 ^a spots/wing"}, {"measurement": "Wings with spots (% ± S.E.M.)", "setting": "[1]; [10]", "value": "28.9 ± 4.6^a %"}, {"measurement": "IC50 in DPPH• assay", "setting": "[2]", "value": 0.0185, "unit": "%"}, {"measurement": "rapeseed oil autooxidation induction period (IP)", "setting": "[3]; 0.025 % 5,8-DHC", "value": 3.81, "unit": "h"}, {"measurement": "protection factor of rapeseed oil", "setting": "[3]; 0.025% 5,8-DHC", "value": 1.69}, {"measurement": "rapeseed oil autooxidation induction period (IP)", "setting": "[3]; 0.050 % 5,8-DHC", "value": 5.46, "unit": "h"}, {"measurement": "protection factor of rapeseed oil", "setting": "[3]; 0.05% 5,8-DHC", "value": 2.43}, {"measurement": "rapeseed oil autooxidation induction period (IP)", "setting": "[3]; 0.100 % 5,8-DHC", "value": 8.46, "unit": "h"}, {"measurement": "CA per 100 cells (±S.E.M.)", "setting": "[4]; 10 µg/mL", "value": "1.5 ± 0.9", "unit": "per 100 cells"}, {"measurement": "CA per 100 cells (±S.E.M.)", "setting": "[4]; 15 µg/mL", "value": "3.0 ± 1.2", "unit": "per 100 cells"}, {"measurement": "CA per 100 cells (±S.E.M.)", "setting": "[4]; 20 µg/mL", "value": "3.5 ± 1.3", "unit": "per 100 cells"}, {"measurement": "CA per 100 cells (±S.E.M.)", "setting": "[4]; 25 µg/mL", "value": "6.5 ± 1.7", "unit": "per 100 cells"}, {"measurement": "CA per 100 cells (±S.E.M.)", "setting": "[4]; 30 µg/mL", "value": "7.0 ± 1.8", "unit": "per 100 cells"}, {"measurement": "CA per 100 cells (±S.E.M.)", "setting": "[4]; 35 µg/mL", "value": "7.0 ± 1.8", "unit": "per 100 cells"}, {"measurement": "CA per 100 cells (±S.E.M.)", "setting": "[4]; 40 µg/mL", "value": "9.5 ± 2.1 ^b per 100 cells"}, {"measurement": "concentration giving statistically significant increase of CAs", "setting": "[4]; highest concentration only", "value": 40000, "unit": "ng/mL"}]}
